# In patent US20130171224A1, “TREATMENT OF BIOFILMS” (priority 2010, published 2013):
# What was measured:
# Format in all cases: cell-based
# [1] = tested on: Pseudomonas aeruginosa ATCC9027 biofilm; experiment: Challenge of NUNC-TSP biofilms to polyphosphate (MIC, MBC, MBEC)
# Protocol: (§1) The bacteria used in this study were Staphylococcus aureus ATCC6538, Candida albicans ATCC10231 and Pseudomonas aeruginosa ATCC9027. Pure cultures were maintained on nutrient agar at 37° C. The NUNC-TSP transferable solid phase screening system (NUNC, Roskilde, Denmark) was used to generate up to 96 reproducible biofilms in a microtitre plate. Briefly, a suspension of each bacteria was prepared in 0.9% saline solution and adjusted to a McFarland's standard no. 1.0. This bacterial suspension was then diluted 1:30 in sterile TSB and 150 μl aliquots aseptically transferred to a 96 well Calgary device. Plates were incubated for 24 and 72 hours and then submerged in 150 μl 0.9% saline solution to remove planktonic bacteria from the biofilm surface. A stock solution of polyphosphate (80 mg/ml) was prepared in distilled water and filter sterilised (0.22 μm). This was subsequently diluted 1:2 in triplicate across the wells in TSB to a final concentration of 0.04 mg/ml. Each well also consisted of positive controls (TSB only in absence of antimicrobial agent) and negative controls. NUNC solid phase lids were subsequently transferred to this challenge plate and incubated overnight (37° C.). Wells were visually inspected for turbidity signifying bacterial growth. The minimum inhibitory concentration was defined as the lowest concentration of polyphosphate to prevent bacterial growth. Aliquots of wells (10 μl) showing no visual signs of turbidity were transferred to fresh TSB stocks and incubated for a further 8 hours (37° C.). This allowed the determination of the minimum bactericidal concentration (MBC). Subsequent to this, challenged NUNC peg lids were transferred to a 96 well recovery plate containing TSB media only. Plates were incubated overnight and visualised for bacterial growth. This allowed the determination of the minimum biofilm eradication concentration (MBEC). Any growth in the media corresponded to planktonic bacteria seeding the media from a viable biofilm. Absence of turbidity therefore signified bacterial eradication at this respective concentration of polyphosphate.
# [2] = tested on: Staphylococcus aureus ATCC6538 biofilm; experiment: as above
# Protocol: as §1
# [3] = tested on: Candida albicans ATCC10231 biofilm; experiment: Combinational effects between ionic silver and polyphosphate (FIC) on NUNC biofilms; parameters: MIC in combination (A) / MIC in combination (B): unit not given beside the values; details: 72 hour C. albicans biofilm
# Protocol: (§2) The bacteria used in this study were Staphylococcus aureus ATCC6538, Candida albicans ATCC10231 and Pseudomonas aeruginosa ATCC9027. Pure cultures were maintained on nutrient agar at 37° C. The NUNC-TSP transferable solid phase screening system (NUNC, Roskilde, Denmark) was used to generate up to 96 reproducible biofilms in a microtitre plate. Briefly, a suspension of each bacteria was prepared in 0.9% saline solution and adjusted to a McFarland's standard no. 1.0. This bacterial suspension was then diluted 1:30 in sterile TSB and 150 μl aliquots aseptically transferred to a 96 well Calgary device. […] Biofilms were generated as described previously. […] Sigma-Aldrich, Germany) was prepared in water (40 mg/ml) and filter sterilised (0.22 μm). Concentrations of polyphosphate were prepared horizontally across the NUNC 96 well plate, whilst ionic silver was prepared vertically. […] This permitted a diverse array of drug concentration combinations to be tested in a single investigation.
# [4] = tested on: Pseudomonas aeruginosa ATCC9027 biofilm; experiment: as above; parameters: MIC in combination (A) / MIC in combination (B): unit not given beside the values; details: for MIC alone mg/ml (A): agent A alone; for MIC in combination (A): agent A in combination with B; for MIC alone mg/ml (B): agent B alone; for MIC in combination (B): agent B in combination with A
# Protocol: as §2
# [5] = tested on: Staphylococcus aureus ATCC6538 biofilm; experiment: as above; parameters: MIC in combination (A) / MIC in combination (B): unit not given beside the values; details: 24 hour S. aureus biofilm
# Protocol: as §2
# [6] = 24 hour monospecies P. aeruginosa biofilm
# [7] = 24 hour monospecies S. aureus biofilm
compound,measurement,setting,value
polyphosphate,MBC,[1]; [6],>80000 µg/mL
same,MBEC,[1]; [6],>80 mg/mL
same,MIC,[1]; [6],5000 µg/mL
same,MIC,[1]; 72 hour P. aeruginosa biofilm,80000 µg/mL
same,MBC,[2]; [7],10000 µg/mL
same,MBEC,[2]; [7],40 to 80 mg/mL
same,MIC,[2]; [7],1250 µg/mL
same,MIC,[2]; 72 hour S. aureus biofilm,20000 µg/mL
same,FIC (A),[3],0.006
same,MIC alone mg/ml (A),[3]; agent A alone,5 mg/mL
same,MIC in combination (A),[3]; agent A in combination with B,0.03
same,FIC (A),[4]; 24 hour P. aeruginosa biofilm,0.125
same,MIC alone mg/ml (A),[4]; 24 hour P. aeruginosa biofilm,5 mg/mL
same,MIC in combination (A),[4]; 24 hour P. aeruginosa biofilm,0.625
same,FIC (A),[4]; 72 hour P. aeruginosa biofilm,0.5
same,MIC alone mg/ml (A),[4]; 72 hour P. aeruginosa biofilm,80 mg/mL
same,MIC in combination (A),[4]; 72 hour P. aeruginosa biofilm,40
same,FIC (A),[5],0.012
same,MIC alone mg/ml (A),[5]; agent A alone,1.25 mg/mL
same,MIC in combination (A),[5]; agent A in combination with B,0.015
"O=[N+]([O-])[O-].[Ag+] [silver nitrate, reference compound]",FIC (B),[3],0.428
same,MIC alone mg/ml (B),[3]; agent B alone,0.07 mg/mL
same,MIC in combination (B),[3]; agent B in combination with A,0.03
same,FIC (B),[4]; 24 hour P. aeruginosa biofilm,0.0625
same,MIC alone mg/ml (B),[4]; 24 hour P. aeruginosa biofilm,10 mg/mL
same,MIC in combination (B),[4]; 24 hour P. aeruginosa biofilm,0.625
same,FIC (B),[4]; 72 hour P. aeruginosa biofilm,0.1
same,MIC alone mg/ml (B),[4]; 72 hour P. aeruginosa biofilm,0.6 mg/mL
same,MIC in combination (B),[4]; 72 hour P. aeruginosa biofilm,0.07
same,FIC (B),[5],1
same,MIC alone mg/ml (B),[5]; agent B alone,0.015 mg/mL
same,MIC in combination (B),[5]; agent B in combination with A,0.015
